{"source": "patent US20170281611A1", "about": "“QUINOLINES AND THEIR USE FOR TREATING ENDOPLASMIC RETICULUM STRESS-CAUSED DISEASES” (EIGER BIOPHARMACEUTICALS, INC., priority 2014, published 2017)", "system": "PS1/APP mice", "assay": "Alzheimer's disease model, 2-photon Ca2+ imaging of CA1 pyramidal neurons in brain slices", "format": "in vivo, mouse", "conditions": "10 mg/kg IP for 4 weeks, vs saline", "description": "PS1/APP mice (PS1M146V and APPSWE) (Howlett et al., Brain Res. 2004, 1017, 130-136) were used. Age-matched NTg controls were on the same background strain (C57bl6/J9).\nMice were deeply anesthetized with halothane and rapidly decapitated. The brains were extracted rapidly and 300 or 400 μm-thick transverse hippocampal slices were cut with a vibrating microtome into ice-cold oxygenated artificial cerebrospinal fluid (aCSF) with the following composition (in mM): 125 NaCl, 2.5 KCl, 1.25 KH2PO4, 1.2 MgSO4, 2 CaCl2, 10 dextrose, and 25 NaHCO3.\nCa^2+ imaging within individual neurons was performed in brain slice preparations using a custom-made video-rate multiphoton-imaging system based on an upright Olympus BX51 microscope frame. […] Emitted fluorescence light was detected by a wide-field photomultiplier (Electron Tubes) to derive a video signal that was captured and analyzed by Video Savant 5.0 software (IO Industries). […] For clarity, results are expressed as inverse ratios so that increases in [Ca^2+] correspond to increasing ratios. The % change is calculated as […], where F is the average resting fluorescence at baseline and ΔF is the decrease of fluorescence reflecting Ca release. Differences between drug- and saline-treated groups were assessed using two-way ANOVA and Scheffe post hoc analysis for significance (p<0.05). […]", "data": [{"smiles": "Cc1ccc2cccc(NC(=O)c3ccc(OC(C)C)cc3)c2n1", "note": "[Compound A12, 4-Isopropoxy-N-(2-methylquinolin-8-yl)benzamide]", "values": [{"measurement": "ER Ca2+ signaling (RyR-Ca2+ response to caffeine)", "value": "restores ER Ca^2+ signaling"}]}]}
